Measured values reported in ChEMBL document CHEMBL1269000, “Synthesis and biological evaluation of [D-lysine]8cyclosporin A analogs as potential anti-HCV agents” (Bioorg Med Chem Lett, 2010).

What was measured:
[1] = biological target: Peptidyl-prolyl cis-trans isomerase A (Homo sapiens, UniProt P62937); assay: Binding affinity to cyclophilin A by ELISA
[2] = biological target: Peptidyl-prolyl cis-trans isomerase B (Homo sapiens, UniProt P23284); assay: Binding affinity to cyclophilin B by ELISA
Sequence of Peptidyl-prolyl cis-trans isomerase B (P23284 whole entry): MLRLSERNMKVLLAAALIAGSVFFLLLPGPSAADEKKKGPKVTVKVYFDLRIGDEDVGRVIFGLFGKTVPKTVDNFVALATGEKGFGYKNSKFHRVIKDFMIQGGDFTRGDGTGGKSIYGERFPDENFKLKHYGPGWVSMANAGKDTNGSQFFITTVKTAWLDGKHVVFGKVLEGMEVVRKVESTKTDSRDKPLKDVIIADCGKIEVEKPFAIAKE

Jurkat = assay: Immunosuppressive activity against human Jurkat cells assessed as inhibition of phytohemagglutinin-M/phorbol myristate acetate-induced IL2 production; format: cell-based
Hepatitis C virus = assay: Antiviral activity against HCV after 72 hrs by stable luciferase reporter gene assay; format: functional, organism-based, Hepacivirus hominis
[3] = Cytotoxicity against human HuH7 cells assessed as release of lactate dehydrogenase; format: cell-based, Huh-7; details: for IC50: Homo sapiens, Huh-7; for IC90: human, HuH7 cells

Sequence of Peptidyl-prolyl cis-trans isomerase A (P62937 whole entry): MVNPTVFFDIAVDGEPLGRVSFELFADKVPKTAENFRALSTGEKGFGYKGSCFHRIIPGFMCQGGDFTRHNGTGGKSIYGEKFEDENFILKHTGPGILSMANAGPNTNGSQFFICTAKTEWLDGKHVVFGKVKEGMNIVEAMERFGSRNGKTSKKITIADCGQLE

| IC50 [1] [nM] | IC50 [2] [nM] | EC50 (Jurkat) [nM] | EC50 (Hepatitis C virus) [nM] | EC90 (Hepatitis C virus) [nM] | SMILES | IC50 [3] [nM] | IC90 [3] [nM] |
| --- | --- | --- | --- | --- | --- | --- | --- |
| 140 | 158 | 55 | 380 | 950 | C/C=C/C[C@@H](C)[C@@H](O)[C@H]1C(=O)N[C@@H](CC)C(=O)N(C)CC(=O)N(C)[C@@H](CC(C)C)C(=O)N[C@@H](C(C)C)C(=O)N(C)[C@@H](CC(C)C)C(=O)N[C@@H](C)C(=O)N[C@H](CN(CC)CC)C(=O)N(C)[C@@H](CC(C)C)C(=O)N(C)[C@@H](CC(C)C)C(=O)N(C)[C@@H](C(C)C)C(=O)N1C | 2680 | > 10000 |
| 22.9 | 25.2 | 20 | 190 | 670 | C/C=C/C[C@@H](C)[C@@H](O)[C@H]1C(=O)N[C@@H](CC)C(=O)N(C)CC(=O)N(C)[C@@H](CC(C)C)C(=O)N[C@@H](C(C)C)C(=O)N(C)[C@@H](CC(C)C)C(=O)N[C@@H](C)C(=O)N[C@H](CN(C)C)C(=O)N(C)[C@@H](CC(C)C)C(=O)N(C)[C@@H](CC(C)C)C(=O)N(C)[C@@H](C(C)C)C(=O)N1C | 2050 | > 10000 |
| – | 10.3 | 4210 | 50 | 240 | C/C=C/C[C@@H](C)[C@@H](O)[C@H]1C(=O)N[C@@H](CC)C(=O)N(C)[C@H](SCCN(C)C)C(=O)N(C)[C@@H](CC(C)(C)O)C(=O)N[C@@H](C(C)C)C(=O)N(C)[C@@H](CC(C)C)C(=O)N[C@@H](C)C(=O)N[C@H](C)C(=O)N(C)[C@@H](CC(C)C)C(=O)N(C)[C@@H](CC(C)C)C(=O)N(C)[C@@H](C(C)C)C(=O)N1C [SCY 635] | > 10000 | > 10000 |
| 83.5 | 66.8 | 50 | 200 | 480 | C/C=C/C[C@@H](C)[C@@H](O)[C@H]1C(=O)N[C@@H](CC)C(=O)N(C)CC(=O)N(C)[C@@H](CC(C)C)C(=O)N[C@@H](C(C)C)C(=O)N(C)[C@@H](CC(C)C)C(=O)N[C@@H](C)C(=O)N[C@H](CNC(=O)OC(C)(C)C)C(=O)N(C)[C@@H](CC(C)C)C(=O)N(C)[C@@H](CC(C)C)C(=O)N(C)[C@@H](C(C)C)C(=O)N1C | 1720 | > 10000 |
| 31.2 | 26.1 | 22 | 140 | 360 | C/C=C/C[C@@H](C)[C@@H](O)[C@H]1C(=O)N[C@@H](CC)C(=O)N(C)CC(=O)N(C)[C@@H](CC(C)C)C(=O)N[C@@H](C(C)C)C(=O)N(C)[C@@H](CC(C)C)C(=O)N[C@@H](C)C(=O)N[C@H](CCNC(=O)C(C)(C)C)C(=O)N(C)[C@@H](CC(C)C)C(=O)N(C)[C@@H](CC(C)C)C(=O)N(C)[C@@H](C(C)C)C(=O)N1C | 2020 | > 10000 |
| 218 | 151 | 90 | 660 | 2350 | C/C=C/C[C@@H](C)[C@@H](O)[C@H]1C(=O)N[C@@H](CC)C(=O)N(C)CC(=O)N(C)[C@@H](CC(C)C)C(=O)N[C@@H](C(C)C)C(=O)N(C)[C@@H](CC(C)C)C(=O)N[C@@H](C)C(=O)N[C@H](CCN)C(=O)N(C)[C@@H](CC(C)C)C(=O)N(C)[C@@H](CC(C)C)C(=O)N(C)[C@@H](C(C)C)C(=O)N1C | 5300 | > 10000 |
| 22.8 | 20.6 | 121 | 160 | 300 | C/C=C/C[C@@H](C)[C@@H](O)[C@H]1C(=O)N[C@@H](CC)C(=O)N(C)CC(=O)N(C)[C@@H](CC(C)C)C(=O)N[C@@H](C(C)C)C(=O)N(C)[C@@H](CC(C)C)C(=O)N[C@@H](C)C(=O)N[C@H](CCCCNC(=O)C(C)(C)C)C(=O)N(C)[C@@H](CC(C)C)C(=O)N(C)[C@@H](CC(C)C)C(=O)N(C)[C@@H](C(C)C)C(=O)N1C | 2560 | > 10000 |
| 46 | 59.5 | 24 | 170 | 300 | C/C=C/C[C@@H](C)[C@@H](O)[C@H]1C(=O)N[C@@H](CC)C(=O)N(C)CC(=O)N(C)[C@@H](CC(C)C)C(=O)N[C@@H](C(C)C)C(=O)N(C)[C@@H](CC(C)C)C(=O)N[C@@H](C)C(=O)N[C@H](CCN(C)C)C(=O)N(C)[C@@H](CC(C)C)C(=O)N(C)[C@@H](CC(C)C)C(=O)N(C)[C@@H](C(C)C)C(=O)N1C | 3280 | > 10000 |
| 26.7 | 30.5 | 21 | 120 | 310 | C/C=C/C[C@@H](C)[C@@H](O)[C@H]1C(=O)N[C@@H](CC)C(=O)N(C)CC(=O)N(C)[C@@H](CC(C)C)C(=O)N[C@@H](C(C)C)C(=O)N(C)[C@@H](CC(C)C)C(=O)N[C@@H](C)C(=O)N[C@H](CCCNC(=O)C(C)(C)C)C(=O)N(C)[C@@H](CC(C)C)C(=O)N(C)[C@@H](CC(C)C)C(=O)N(C)[C@@H](C(C)C)C(=O)N1C | 2070 | > 10000 |
| 35.2 | 28.9 | 39 | 140 | 380 | C/C=C/C[C@@H](C)[C@@H](O)[C@H]1C(=O)N[C@@H](CC)C(=O)N(C)CC(=O)N(C)[C@@H](CC(C)C)C(=O)N[C@@H](C(C)C)C(=O)N(C)[C@@H](CC(C)C)C(=O)N[C@@H](C)C(=O)N[C@H](CCCN(C)C)C(=O)N(C)[C@@H](CC(C)C)C(=O)N(C)[C@@H](CC(C)C)C(=O)N(C)[C@@H](C(C)C)C(=O)N1C | 2150 | 8730 |
| 21.4 | 17.2 | 134 | 150 | 370 | C/C=C/C[C@@H](C)[C@@H](O)[C@H]1C(=O)N[C@@H](CC)C(=O)N(C)CC(=O)N(C)[C@@H](CC(C)C)C(=O)N[C@@H](C(C)C)C(=O)N(C)[C@@H](CC(C)C)C(=O)N[C@@H](C)C(=O)N[C@H](CCCN(CC)CC)C(=O)N(C)[C@@H](CC(C)C)C(=O)N(C)[C@@H](CC(C)C)C(=O)N(C)[C@@H](C(C)C)C(=O)N1C | 1820 | 8910 |
| 26.6 | 19.8 | 2170 | 180 | 530 | C/C=C/C[C@@H](C)[C@@H](O)[C@H]1C(=O)N[C@@H](CC)C(=O)N(C)CC(=O)N(C)[C@@H](CC(C)C)C(=O)N[C@@H](C(C)C)C(=O)N(C)[C@@H](CC(C)C)C(=O)N[C@@H](C)C(=O)N[C@H](CCCCN(CC)CC)C(=O)N(C)[C@@H](CC(C)C)C(=O)N(C)[C@@H](CC(C)C)C(=O)N(C)[C@@H](C(C)C)C(=O)N1C | 2240 | 7900 |
| 9.12 | 9.45 | 5.1 | 40 | 140 | C/C=C/C[C@@H](C)[C@@H](O)[C@H]1C(=O)N[C@@H](CC)C(=O)N(C)CC(=O)N(C)[C@@H](CC(C)C)C(=O)N[C@@H](C(C)C)C(=O)N(C)[C@@H](CC(C)C)C(=O)N[C@@H](C)C(=O)N[C@H](CC#N)C(=O)N(C)[C@@H](CC(C)C)C(=O)N(C)[C@@H](CC(C)C)C(=O)N(C)[C@@H](C(C)C)C(=O)N1C | 2820 | > 10000 |
| 103 | 79.7 | 13 | 300 | 820 | C/C=C/C[C@@H](C)[C@@H](O)[C@H]1C(=O)N[C@@H](CC)C(=O)N(C)CC(=O)N(C)[C@@H](CC(C)C)C(=O)N[C@@H](C(C)C)C(=O)N(C)[C@@H](CC(C)C)C(=O)N[C@@H](C)C(=O)N[C@H](CN)C(=O)N(C)[C@@H](CC(C)C)C(=O)N(C)[C@@H](CC(C)C)C(=O)N(C)[C@@H](C(C)C)C(=O)N1C | 4610 | > 10000 |
| 662 | 1580 | 111 | 1890 | 6740 | C/C=C/C[C@@H](C)[C@@H](O)[C@H]1C(=O)N[C@@H](CC)C(=O)N(C)CC(=O)N(C)[C@@H](CC(C)C)C(=O)N[C@@H](C(C)C)C(=O)N(C)[C@@H](CC(C)C)C(=O)N[C@@H](C)C(=O)N[C@H](CCCN)C(=O)N(C)[C@@H](CC(C)C)C(=O)N(C)[C@@H](CC(C)C)C(=O)N(C)[C@@H](C(C)C)C(=O)N1C | > 10000 | > 10000 |
| 65.2 | 55.9 | 114 | 170 | 350 | C/C=C/C[C@@H](C)[C@@H](O)[C@H]1C(=O)N[C@@H](CC)C(=O)N(C)CC(=O)N(C)[C@@H](CC(C)C)C(=O)N[C@@H](C(C)C)C(=O)N(C)[C@@H](CC(C)C)C(=O)N[C@@H](C)C(=O)N[C@H](CCN(CC)CC)C(=O)N(C)[C@@H](CC(C)C)C(=O)N(C)[C@@H](CC(C)C)C(=O)N(C)[C@@H](C(C)C)C(=O)N1C | 1500 | 8620 |
| – | – | 6.7 | 370 | 910 | C/C=C/C[C@@H](C)[C@@H](O)[C@H]1C(=O)N[C@@H](CC)C(=O)N(C)CC(=O)N(C)[C@@H](CC(C)C)C(=O)N[C@@H](C(C)C)C(=O)N(C)[C@@H](CC(C)C)C(=O)N[C@@H](C)C(=O)N[C@H](C)C(=O)N(C)[C@@H](CC(C)C)C(=O)N(C)[C@@H](CC(C)C)C(=O)N(C)[C@@H](C(C)C)C(=O)N1C [CYCLOSPORINE] | – | – |

| SMILES | IC50 [1] [nM] | IC50 [2] [nM] | EC50 (Jurkat) [nM] | EC50 (Hepatitis C virus) [nM] | EC90 (Hepatitis C virus) [nM] | IC50 [3] [nM] | IC90 [3] [nM] |
| --- | --- | --- | --- | --- | --- | --- | --- |
| C/C=C/C[C@@H](C)[C@@H](O)[C@H]1C(=O)N[C@@H](CC)C(=O)N(C)CC(=O)N(C)[C@@H](CC(C)C)C(=O)N[C@@H](C(C)C)C(=O)N(C)[C@@H](CC(C)C)C(=O)N[C@@H](C)C(=O)N[C@H](CCCCN(C)C)C(=O)N(C)[C@@H](CC(C)C)C(=O)N(C)[C@@H](CC(C)C)C(=O)N(C)[C@@H](C(C)C)C(=O)N1C | 14 | 97.1 | 332 | 140 | 300 | 2810 | > 10000 |
| C/C=C/C[C@@H](C)[C@@H](O)[C@H]1C(=O)N[C@@H](CC)C(=O)N(C)CC(=O)N(C)[C@@H](CC(C)C)C(=O)N[C@@H](C(C)C)C(=O)N(C)[C@@H](CC(C)C)C(=O)N[C@@H](C)C(=O)N[C@H](CCCCN)C(=O)N(C)[C@@H](CC(C)C)C(=O)N(C)[C@@H](CC(C)C)C(=O)N(C)[C@@H](C(C)C)C(=O)N1C | 11.1 | 12.7 | 94 | 1000 | 2850 | > 10000 | > 10000 |
